Test results as given in US20230123334A1, “AMINO LIPID COMPOUND, PREPARATION METHOD THEREFOR, AND APPLICATION THEREOF” (SHENZHEN SHENXIN BIOTECHNOLOGY CO., LTD., priority 2020, published 2023).

Each molecule was assayed on HEK293 cells (assay: Preliminary screening as mRNA vectors, EGFP mRNA transfection of HEK293 cells). Details: EGFP mRNA 50 ng per well, 96-well plates; percentage of GFP fluorescent cells relative to total number of cells (Hoechst).
Type: cell-based
Method: Cell line: HEK293 cells (ATCC CRL-1573™)
Medium: DMEM supplemented with 10% fetal bovine serum (Invitrogen)
Screening: cell transfection on 96-well plates
Detection (readout): percentage of the number of GFP fluorescent cells relative to the total number of cells (the total number of cells was determined using nucleus dye Hoechst). Lipofectamine2000 (Invitrogen) was used as the positive control.
Method: the experimental method was basically the same with Example 4, and the mass of EGFP mRNA (TriLink) for transfection was 50 ng per well.
For CCCCCCCCCCCCCCCCSc1nc(NCCCCCCCCCCCCCCC)nc(NCCN(C)C)n1 [Compound D1S16N15], the “Absolute mRNA transfection efficiency in HEK293 cells” value (“Absolute mRNA transfection efficiency” for short) was 1.4%.
CCCCCCCCCCCCCCCCNc1nc(NCCN(C)C)nc(SCCCCCCCCCCCCCCCC)n1 [Compound D1S16N16] was tested, and the “Absolute mRNA transfection efficiency” value was 0.9%.
CCCCCCCCCCCCCCCCCCNc1nc(NCCN(C)C)nc(SCCCCCCCCCCCCCCCC)n1 [Compound D1S16N18] was tested, and the “Absolute mRNA transfection efficiency” value was 0.5%.
CCCCCCCCCCCCCCCCCCSc1nc(NCCCCCC)nc(NCCN(C)C)n1 [Compound D1S18N6] was tested, and the “Absolute mRNA transfection efficiency” value was 42.6%.
CCCCCCCCCCCCCCCCCCSc1nc(NCCCCCCC)nc(NCCN(C)C)n1 [Compound D1S18N7] was tested, and the “Absolute mRNA transfection efficiency” value was 63.0%.
With CCCCCCCCCCCCCCCCCCSc1nc(NCCCCCCCC)nc(NCCN(C)C)n1 [Compound D1S18N8] the “Absolute mRNA transfection efficiency” value was 38.0%.
With CCCCCCCCCCCCCCCCCCSc1nc(NCCCCCCCCC)nc(NCCN(C)C)n1 [Compound D1S18N9] the “Absolute mRNA transfection efficiency” value was 30.3%.
For CCCCCCCCCCCCCCCCCCSc1nc(NCCCCCCCCCCC)nc(NCCN(C)C)n1 [Compound D1S18N11], the “Absolute mRNA transfection efficiency” value was 1.3%.
CCCCCCCCCCCCCCCCCCSc1nc(NCCCCCCCCCCCC)nc(NCCN(C)C)n1 [Compound D1S18N12] was tested, and the “Absolute mRNA transfection efficiency” value was 2.3%.
For CCCCCCCCCCCCCCCCCCSc1nc(NCCCCCCCCCCCCC)nc(NCCN(C)C)n1 [Compound D1S18N13], the “Absolute mRNA transfection efficiency” value was 0.2%.
With CCCCCCCCCCCCCCCCCCSc1nc(NCCCCCCCCCCCCCCC)nc(NCCN(C)C)n1 [Compound D1S18N15] the “Absolute mRNA transfection efficiency” value was 0.5%.
In the case of CCCCCCCCCCCCCCCCCCSc1nc(NCCCCCCCCCCCCCCCC)nc(NCCN(C)C)n1 [Compound D1S18N16], the “Absolute mRNA transfection efficiency” value is reported as 0.1%.
CCCCCCCCCCCCCCCCCCNc1nc(NCCN(C)C)nc(SCCCCCCCCCCCCCCCCCC)n1 [Compound D1S18N18] was tested, and the “Absolute mRNA transfection efficiency” value was 0.0%.
For CCCCCCNc1nc(NCCN2CCOCC2)nc(SCCCCCC)n1 [Compound D2S6N6], the “Absolute mRNA transfection efficiency” value was 0.4%.
In the case of CCCCCCCNc1nc(NCCN2CCOCC2)nc(SCCCCCC)n1 [Compound D2S6N7], the “Absolute mRNA transfection efficiency” value is reported as 2.7%.
CCCCCCCCNc1nc(NCCN2CCOCC2)nc(SCCCCCC)n1 [Compound D2S6N8] was tested, and the “Absolute mRNA transfection efficiency” value was 0.0%.
In the case of CCCCCCCCCNc1nc(NCCN2CCOCC2)nc(SCCCCCC)n1 [Compound D2S6N9], the “Absolute mRNA transfection efficiency” value is reported as 0.8%.
In the case of CCCCCCCCCCCNc1nc(NCCN2CCOCC2)nc(SCCCCCC)n1 [Compound D2S6N11], the “Absolute mRNA transfection efficiency” value is reported as 0.8%.
For CCCCCCCCCCCCNc1nc(NCCN2CCOCC2)nc(SCCCCCC)n1 [Compound D2S6N12], the “Absolute mRNA transfection efficiency” value was 0.8%.
For CCCCCCCCCCCCCNc1nc(NCCN2CCOCC2)nc(SCCCCCC)n1 [Compound D2S6N13], the “Absolute mRNA transfection efficiency” value was 0.2%.
For CCCCCCCCCCCCCCCNc1nc(NCCN2CCOCC2)nc(SCCCCCC)n1 [Compound D2S6N15], the “Absolute mRNA transfection efficiency” value was 1.2%.
In the case of CCCCCCCCCCCCCCCCNc1nc(NCCN2CCOCC2)nc(SCCCCCC)n1 [Compound D2S6N16], the “Absolute mRNA transfection efficiency” value is reported as 2.2%.
CCCCCCCCCCCCCCCCCCNc1nc(NCCN2CCOCC2)nc(SCCCCCC)n1 [Compound D2S6N18] was tested, and the “Absolute mRNA transfection efficiency” value was 4.5%.
In the case of CCCCCCSc1nc(NCCN2CCOCC2)nc(SCCCCCC)n1 [Compound D2S6S6], the “Absolute mRNA transfection efficiency” value is reported as 2.2%.
CCCCCCCSc1nc(NCCN2CCOCC2)nc(SCCCCCC)n1 [Compound D2S6S7] was tested, and the “Absolute mRNA transfection efficiency” value was 0.6%.
With CCCCCCCCSc1nc(NCCN2CCOCC2)nc(SCCCCCC)n1 [Compound D2S6S8] the “Absolute mRNA transfection efficiency” value was 5.0%.
With CCCCCCCCCSc1nc(NCCN2CCOCC2)nc(SCCCCCC)n1 [Compound D2S6S9] the “Absolute mRNA transfection efficiency” value was 6.3%.
For CCCCCCCCCCSc1nc(NCCN2CCOCC2)nc(SCCCCCC)n1 [Compound D2S6S10], the “Absolute mRNA transfection efficiency” value was 4.6%.
CCCCCCCCCCCSc1nc(NCCN2CCOCC2)nc(SCCCCCC)n1 [Compound D2S6S11] was tested, and the “Absolute mRNA transfection efficiency” value was 7.4%.
With CCCCCCCCCCCCSc1nc(NCCN2CCOCC2)nc(SCCCCCC)n1 [Compound D2S6S12] the “Absolute mRNA transfection efficiency” value was 1.5%.
In the case of CCCCCCCCCCCCCCSc1nc(NCCN2CCOCC2)nc(SCCCCCC)n1 [Compound D2S6S14], the “Absolute mRNA transfection efficiency” value is reported as 6.6%.
CCCCCCCCCCCCCCCSc1nc(NCCN2CCOCC2)nc(SCCCCCC)n1 [Compound D2S6S15] was tested, and the “Absolute mRNA transfection efficiency” value was 6.9%.
With CCCCCCCCCCCCCCCCSc1nc(NCCN2CCOCC2)nc(SCCCCCC)n1 [Compound D2S6S16] the “Absolute mRNA transfection efficiency” value was 16.0%.
With CCCCCCCCCCCCCCCCCCSc1nc(NCCN2CCOCC2)nc(SCCCCCC)n1 [Compound D2S6S18] the “Absolute mRNA transfection efficiency” value was 12.1%.
In the case of CCCCCCCSc1nc(NCCCCCC)nc(NCCN2CCOCC2)n1 [Compound D2S7N6], the “Absolute mRNA transfection efficiency” value is reported as 1.2%.
With CCCCCCCNc1nc(NCCN2CCOCC2)nc(SCCCCCCC)n1 [Compound D2S7N7] the “Absolute mRNA transfection efficiency” value was 1.1%.
For CCCCCCCCNc1nc(NCCN2CCOCC2)nc(SCCCCCCC)n1 [Compound D2S7N8], the “Absolute mRNA transfection efficiency” value was 1.0%.
With CCCCCCCCCNc1nc(NCCN2CCOCC2)nc(SCCCCCCC)n1 [Compound D2S7N9] the “Absolute mRNA transfection efficiency” value was 8.7%.
With CCCCCCCCCCCNc1nc(NCCN2CCOCC2)nc(SCCCCCCC)n1 [Compound D2S7N11] the “Absolute mRNA transfection efficiency” value was 16.0%.
CCCCCCCCCCCCNc1nc(NCCN2CCOCC2)nc(SCCCCCCC)n1 [Compound D2S7N12] was tested, and the “Absolute mRNA transfection efficiency” value was 3.0%.
CCCCCCCCCCCCCNc1nc(NCCN2CCOCC2)nc(SCCCCCCC)n1 [Compound D2S7N13] was tested, and the “Absolute mRNA transfection efficiency” value was 6.2%.
For CCCCCCCCCCCCCCCNc1nc(NCCN2CCOCC2)nc(SCCCCCCC)n1 [Compound D2S7N15], the “Absolute mRNA transfection efficiency” value was 3.1%.
With CCCCCCCCCCCCCCCCNc1nc(NCCN2CCOCC2)nc(SCCCCCCC)n1 [Compound D2S7N16] the “Absolute mRNA transfection efficiency” value was 2.6%.
CCCCCCCCCCCCCCCCCCNc1nc(NCCN2CCOCC2)nc(SCCCCCCC)n1 [Compound D2S7N18] was tested, and the “Absolute mRNA transfection efficiency” value was 5.2%.
CCCCCCCSc1nc(NCCN2CCOCC2)nc(SCCCCCCC)n1 [Compound D2S7S7] was tested, and the “Absolute mRNA transfection efficiency” value was 4.9%.
In the case of CCCCCCCCSc1nc(NCCN2CCOCC2)nc(SCCCCCCC)n1 [Compound D2S7S8], the “Absolute mRNA transfection efficiency” value is reported as 35.6%.
For CCCCCCCCCSc1nc(NCCN2CCOCC2)nc(SCCCCCCC)n1 [Compound D2S7S9], the “Absolute mRNA transfection efficiency” value was 37.7%.
